Key:
Experiment in all cases: relative viability (nuclei count vs DMSO), 5 days (fraction); higher = more cells survive
Bicalutamide + Lapatinib = compound: CC(O)(CS(=O)(=O)c1ccc(F)cc1)C(=O)Nc1ccc(C#N)c(C(F)(F)F)c1 [Bicalutamide] + CS(=O)(=O)CCNCc1ccc(-c2ccc3ncnc(Nc4ccc(OCc5cccc(F)c5)c(Cl)c4)c3c2)o1 [Lapatinib] (partner 2 µM)
Outline: (§1)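 Lung cancer cell lines, seeded in 1536-well plates, were treated the following day by pin tool with a single drug or with five library-drug doses (not always all listed) in √10 steps on top of a fixed anchor-drug dose. Cells were fixed and nuclei stained in one step after 5 days, and nuclei were counted. Relative viability is the nuclei count for treated wells divided by that for vehicle wells, reported as medians of duplicate plates.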

[1] = compound: C(C(=O)C(=O)O)Br [Bromopyruvate] + CS(=O)(=O)CCNCc1ccc(-c2ccc3ncnc(Nc4ccc(OCc5cccc(F)c5)c(Cl)c4)c3c2)o1 [Lapatinib] (partner 2 µM)
Outline: as §1

Bicalutamide + Alpelisib = compound: CC(O)(CS(=O)(=O)c1ccc(F)cc1)C(=O)Nc1ccc(C#N)c(C(F)(F)F)c1 [Bicalutamide] + Cc1nc(NC(=O)N2CCC[C@H]2C(N)=O)sc1-c1ccnc(C(C)(C)C(F)(F)F)c1 [Alpelisib] (partner 2 µM)
Outline: as §1

[2] = compound: C(C(=O)C(=O)O)Br [Bromopyruvate] + CS(=O)(=O)N1CCN(Cc2cc3nc(-c4cccc5[nH]ncc45)nc(N4CCOCC4)c3s2)CC1 [Pictilisib] (partner 1 µM)
Outline: as §1

Row | Cell Line | relative viability (Bicalutamide + Lapatinib; first compound 0.08 µM) | relative viability (Bicalutamide + Lapatinib; first compound 0.253 µM) | relative viability (Bicalutamide + Lapatinib; first compound 0.8 µM) | relative viability (Bicalutamide + Lapatinib; first compound 2.53 µM) | relative viability ([1]; first compound 1 µM) | relative viability ([1]; first compound 3.162 µM) | relative viability ([1]; first compound 10 µM) | relative viability ([1]; first compound 31.62 µM) | relative viability ([1]; first compound 100 µM) | relative viability (Bicalutamide + Alpelisib; first compound 0.08 µM) | relative viability (Bicalutamide + Alpelisib; first compound 0.253 µM) | relative viability (Bicalutamide + Alpelisib; first compound 0.8 µM) | relative viability (Bicalutamide + Alpelisib; first compound 2.53 µM) | relative viability ([2]; first compound 1 µM) | relative viability ([2]; first compound 3.162 µM) | relative viability ([2]; first compound 10 µM) | relative viability ([2]; first compound 31.62 µM) | relative viability ([2]; first compound 100 µM)
1 | HCC-44 | 1.05 | 0.987 | 1.12 | 1.05 | 0.959 | 1.02 | 1.11 | 1.1 | 1.02 | 0.848 | 0.764 | 0.902 | 0.794 | 0.697 | 0.625 | 0.693 | 0.66 | 0.671
2 | HCC-827 | 0.171 | 0.178 | 0.171 | 0.193 | 0.205 | 0.191 | 0.167 | 0.193 | 0.214 | 0.965 | 0.79 | 1.03 | 0.958 | 1.08 | 0.909 | 1.14 | 1.17 | 0.849
3 | NCI-H2405 | 1.2 | 1.01 | 1.16 | 0.852 | 1.13 | 1.12 | 1.13 | 0.965 | 1.14 | 0.789 | 0.775 | 0.827 | 0.775 | 0.441 | 0.524 | 0.431 | 0.349 | 0.517
4 | PC-3 [JPC-3] | 0.476 | 0.421 | 0.456 | 0.476 | 0.474 | 0.44 | 0.441 | 0.468 | 0.467 | 1.08 | 1.01 | 1.09 | 1.07 | 0.775 | 0.724 | 0.731 | 0.694 | 0.733
5 | NCI-H1651 | 0.731 | 0.744 | 1.07 | 0.788 | 0.858 | 0.909 | 0.905 | 0.764 | 0.829 | 0.956 | 0.947 | 1.17 | 0.944 | 0.516 | 0.539 | 0.69 | 0.594 | 0.549
6 | HARA | 0.841 | 0.514 | 0.904 | 0.701 | 0.825 | 0.829 | 0.707 | 0.9 | 0.844 | 1.01 | 0.767 | 0.931 | 0.876 | 0.276 | 0.47 | 0.332 | 0.485 | 0.449
7 | NCI-H1650 | 0.905 | 0.655 | 1.09 | 0.74 | 0.765 | 0.69 | 0.75 | 0.81 | 0.815 | – | – | – | – | 0.545 | 0.532 | 0.567 | 0.651 | 0.512
8 | NCI-H1395 | 0.858 | 0.956 | 1.29 | 0.869 | 1.07 | 0.928 | 1.07 | 0.919 | 0.976 | 0.94 | 1.04 | 1.34 | 0.928 | 0.556 | 0.561 | 0.568 | 0.629 | 0.615
9 | NCI-H1993 | – | 0.897 | 0.732 | 0.854 | 0.698 | 0.763 | 0.705 | 0.847 | 0.769 | – | 0.693 | 0.708 | 0.717 | 0.827 | 0.729 | 0.895 | 0.935 | 0.774
10 | LU99A | 0.958 | 0.847 | 1.28 | 0.798 | 1.05 | 0.898 | 1.12 | 0.992 | 1.09 | 0.625 | 0.447 | 0.603 | 0.402 | 0.306 | 0.29 | 0.319 | 0.306 | 0.35
11 | NCI-H1355 | 1 | 0.902 | 0.974 | 1.03 | 0.978 | 0.986 | 1.06 | 0.995 | 0.965 | 0.816 | 0.793 | 0.924 | 0.853 | 0.43 | 0.438 | 0.466 | 0.577 | 0.422
12 | HCC-78 | 0.74 | 0.977 | 0.91 | 0.682 | 1.04 | 0.893 | 0.702 | 1.03 | 0.591 | 0.288 | 0.327 | 0.452 | 0.253 | 0.201 | 0.202 | 0.224 | 0.218 | 0.249
13 | NCI-H1563 | 1.19 | 0.853 | 0.984 | 0.776 | 0.88 | 1.1 | 0.902 | 0.888 | 0.938 | 0.944 | 0.95 | 0.897 | 0.779 | 0.657 | 0.657 | 0.535 | 0.626 | 0.697
14 | HCC-15 | 0.797 | 0.813 | 0.966 | 0.875 | 0.868 | 0.873 | 0.849 | 0.856 | 0.844 | 0.935 | 0.897 | 0.985 | 0.86 | 0.719 | 0.719 | 0.808 | 0.732 | 0.7
15 | EKVX | 0.194 | 0.247 | 0.192 | 0.207 | 0.218 | 0.213 | 0.343 | 0.207 | 0.211 | 0.846 | 0.827 | 1.01 | 0.829 | 0.412 | 0.437 | 0.444 | 0.458 | 0.472
16 | NCI-H2126 | 0.686 | 0.697 | 0.74 | 0.753 | 0.752 | 0.78 | 0.764 | 0.787 | 0.751 | 0.742 | 0.707 | 0.76 | 0.74 | 0.531 | 0.511 | 0.456 | 0.562 | 0.509
17 | LK-2 | 0.901 | 0.852 | 1.11 | 0.898 | 0.936 | 0.88 | 0.871 | 0.967 | 0.826 | 1.21 | 0.878 | 1.44 | 1.16 | 0.548 | 0.526 | 0.59 | 0.704 | 0.642
18 | NCI-H1437 | 0.826 | 0.736 | 1.01 | 0.711 | 0.845 | 0.768 | 1.1 | 0.801 | 0.804 | 1.02 | 0.988 | 1.24 | 0.954 | 0.464 | 0.502 | 0.47 | 0.413 | 0.496
